Assay results as given in ChEMBL document CHEMBL1287669, “Inhibitors selective for HDAC6 in enzymes and cells” (Bioorg Med Chem Lett, 2010).
Active and inactive are the calls of the source. The calls are words filed in the database; no cut-off is given here.

Tests used:
[1] = molecular target: T1, Protein deacetylase HDAC6 (Homo sapiens) (UniProt Q9UBN7); assay: Inhibition of recombinant human HDAC6 at 1 uM using Boc-Lys(Ac)-AMC as substrate by fluorometric analysis
T1 sequence (whole entry): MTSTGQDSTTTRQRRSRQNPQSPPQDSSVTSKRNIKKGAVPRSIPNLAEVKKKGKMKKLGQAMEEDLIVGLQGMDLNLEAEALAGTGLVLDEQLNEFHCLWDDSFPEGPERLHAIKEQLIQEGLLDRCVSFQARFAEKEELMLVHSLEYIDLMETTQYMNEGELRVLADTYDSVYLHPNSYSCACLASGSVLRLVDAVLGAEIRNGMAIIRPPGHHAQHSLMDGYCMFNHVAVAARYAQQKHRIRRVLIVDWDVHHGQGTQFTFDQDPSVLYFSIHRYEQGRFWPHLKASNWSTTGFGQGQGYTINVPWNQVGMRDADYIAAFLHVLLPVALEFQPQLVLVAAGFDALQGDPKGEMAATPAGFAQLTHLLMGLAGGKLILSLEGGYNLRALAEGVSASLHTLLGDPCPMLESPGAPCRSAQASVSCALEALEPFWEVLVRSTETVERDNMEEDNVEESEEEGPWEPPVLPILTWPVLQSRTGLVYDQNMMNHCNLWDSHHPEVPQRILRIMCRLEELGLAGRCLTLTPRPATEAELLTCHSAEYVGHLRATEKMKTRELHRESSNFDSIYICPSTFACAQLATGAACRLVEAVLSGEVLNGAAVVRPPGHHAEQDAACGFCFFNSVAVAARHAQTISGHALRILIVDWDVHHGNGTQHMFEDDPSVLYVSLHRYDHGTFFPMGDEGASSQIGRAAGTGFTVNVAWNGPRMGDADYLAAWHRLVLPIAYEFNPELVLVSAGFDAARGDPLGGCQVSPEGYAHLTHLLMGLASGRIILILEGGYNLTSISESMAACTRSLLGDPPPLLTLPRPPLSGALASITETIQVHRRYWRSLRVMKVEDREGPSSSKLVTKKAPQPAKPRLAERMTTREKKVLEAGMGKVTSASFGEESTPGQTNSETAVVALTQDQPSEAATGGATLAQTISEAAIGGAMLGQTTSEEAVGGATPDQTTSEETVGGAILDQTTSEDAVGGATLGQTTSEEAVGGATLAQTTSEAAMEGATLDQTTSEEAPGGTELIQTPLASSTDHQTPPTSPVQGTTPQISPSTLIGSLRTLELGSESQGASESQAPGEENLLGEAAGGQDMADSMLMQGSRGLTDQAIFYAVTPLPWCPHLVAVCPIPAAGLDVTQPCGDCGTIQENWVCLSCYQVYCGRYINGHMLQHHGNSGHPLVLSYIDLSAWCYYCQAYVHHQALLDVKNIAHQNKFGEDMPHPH

Homo sapiens = species: Homo sapiens; assay: Selectivity index, IC50 for recombinant human HDAC6 to IC50 for recombinant human HDAC1
Histone deacetylase 1 [2] = molecular target: T2, Histone deacetylase 1 (Homo sapiens, UniProt Q13547); assay: Inhibition of recombinant human HDAC1 using Ac-RHKK(Ac)-ACC as substrate by fluorometric analysis
[3] = molecular target: T3, Protein deacetylase HDAC6 (Homo sapiens, UniProt Q9UBN7); assay: Inhibition of recombinant human HDAC6 using Ac-RHKK(Ac)-ACC as substrate by fluorometric analysis
T3 sequence (Q9UBN7 whole entry): T1 sequence (whole entry)

[4] = molecular target: T3, Protein deacetylase HDAC6; assay: Inhibition of recombinant human HDAC6 using Boc-Lys(Ac)-AMC as substrate by fluorometric analysis
Histone deacetylase 1 [5] = molecular target: T2, Histone deacetylase 1; assay: Inhibition of recombinant human HDAC1 using Cbz-Lys(TFAc)-AMC as substrate by fluorometric analysis
Histone deacetylase 1 [6] = molecular target: T2, Histone deacetylase 1; assay: Inhibition of human HDAC1 in PMA-differentiated THP1 cells assessed as hyperacetylation of histone H3 after 4 hrs by Western blotting; assay type: cell-based; settings: THP-1

T2 sequence (Q13547 whole entry): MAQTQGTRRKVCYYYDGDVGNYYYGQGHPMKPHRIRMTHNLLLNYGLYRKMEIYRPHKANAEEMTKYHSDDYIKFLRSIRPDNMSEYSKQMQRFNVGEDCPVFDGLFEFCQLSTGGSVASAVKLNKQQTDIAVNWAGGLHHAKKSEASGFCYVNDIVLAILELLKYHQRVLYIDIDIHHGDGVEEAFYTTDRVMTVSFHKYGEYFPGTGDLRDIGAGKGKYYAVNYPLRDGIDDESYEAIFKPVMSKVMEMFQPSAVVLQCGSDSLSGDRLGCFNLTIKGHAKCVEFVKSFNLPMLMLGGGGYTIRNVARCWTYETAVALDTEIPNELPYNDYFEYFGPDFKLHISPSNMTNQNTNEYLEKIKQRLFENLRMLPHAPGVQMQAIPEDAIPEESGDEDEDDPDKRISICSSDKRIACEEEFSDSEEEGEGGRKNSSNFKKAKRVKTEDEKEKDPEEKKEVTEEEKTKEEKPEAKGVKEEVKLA

Row | SMILES | inhibition [1] [%] | IC50 [4] [nM] | IC50 (Histone deacetylase 1 [5]) [nM] | also measured
1 | O=C(CCCCCn1c2ccccc2c2ccccc21)NO | – | – | – | Ratio IC50 (Homo sapiens): 74; IC50 (Histone deacetylase 1 [2]): 3070 nM; IC50 [3]: 41 nM
2 | O=C(O)CCCCC[C@H](NC(=O)OCc1ccccc1)C(=O)NC1CCCC1 | 40 | – | – | –
3 | CC(C)(C)OC(=O)Nc1ccc(-c2cc(C(=O)NCCCCCCC(=O)NO)no2)cc1 | – | – | 340 | IC50 (Histone deacetylase 1 [2]): 3570 nM
4 | COC(=O)CCCC[C@H](NC(=O)OC(C)(C)C)C(=O)NC1CCCC1 | 40 | – | – | –
5 | CC(C)(C)OC(=O)N[C@@H](CCCCCCO)C(=O)NC1CCCC1 | 3 | – | – | –
6 | CC(C)(C)OC(=O)N[C@@H](CCCCCS)C(=O)NC1CCCC1 | 98 | 54 | 1730 | inhibition (Histone deacetylase 1 [6]): Active
7 | CC(C)(C)OC(=O)N[C@@H](CCCCCC(=O)NO)C(=O)NC1CCCC1 | 99 | 26 | 1420 | IC50 (Histone deacetylase 1 [2]): 3570 nM; IC50 [3]: 27 nM
8 | O=C(CCCCC[C@H](NC(=O)c1cc2ccccc2[nH]1)C(=O)Nc1cccc2cccnc12)NO | – | 107 | 48 | –
9 | CC(C)(C)OC(=O)N[C@@H](CCCCCO)C(=O)NC1CCCC1 | 80 | 240 | > 10000 | –
10 | CC(C)(C)OC(=O)N[C@@H](CCCCO)C(=O)NC1CCCC1 | 50 | – | – | –

Second part, led by results:

Row | inhibition [1] [%] | IC50 [4] [nM] | IC50 (Histone deacetylase 1 [5]) [nM] | SMILES | also measured
11 | 60 | – | – | CC(C)(C)OC(=O)N[C@@H](CCCCCCS)C(=O)NC1CCCC1 | –
12 | – | 943 | 21 | CN(C)c1ccc(C(=O)N[C@@H](CCCCCC(=O)NO)C(=O)Nc2cccc3cccnc23)cc1 | –
13 | 45 | – | – | CC(C)(C)OC(=O)N[C@@H](CCCCCC(=O)O)C(=O)NC1CCCC1 | –
14 | 65 | – | – | COC(=O)CCCCC[C@H](NC(=O)OCc1ccccc1)C(=O)NC1CCCC1 | –
15 | 60 | – | – | COC(=O)CCCCC[C@H](NC(=O)OC(C)(C)C)C(=O)NC1CCCC1 | –
16 | 20 | – | – | O=C(O)CCCC[C@H](NC(=O)OCc1ccccc1)C(=O)NC1CCCC1 | –
